Data taken from patent publication US8110193B2, “Methods for conditioning a subject for hematopoietic cell transplantation” (City of Hope, priority 2007, dated 2012).

Legend:
[1] = Body temperature and tolerability after anti-CD3 injection
[2] = tested on: IL-2, IFN-γ, TNF-α, and IL-6; test: Serum cytokines after anti-CD3 injection (cytokine storm); format: in vivo, mouse (BALB/c)
From the text: (§1) C. […] There were seven mice in each group.

host T cells = test: Apoptosis and yield of residual host T cells in spleen of conditioned mice; format: in vivo, mouse (BALB/c); settings: low-dose (40 or 100 μg/g) SAHA co-injected with anti-CD3
[3] = tested on: IL-2, IFN-γ, TNF-α, and IL-6; test: Cytokines in culture supernatant of anti-CD3-stimulated spleen cells (ELISA); format: cell-based, mouse (BALB/c); settings: 24, 48, 72 hours
Protocol: as §1
One of the side effects of anti-CD3-conditioning is the cytokine storm triggered by anti-CD3 activation of T cells. […] After anti-CD3-stimulation, IL-2 concentration peaked at 48 hours, and IFN-γ, TNF-α, and IL-6 all peaked at 72 hours after culture.

## O=C(CCCCCCC(=O)Nc1ccccc1)NO [SAHA, suberoylanilide hydroxamic acid]
[1]; SAHA 40 μg/g co-injected with anti-CD3
  hypothermia after anti-CD3 injection: significantly reduced hypothermia
[1]; SAHA 200 μg/g co-injected with anti-CD3
  adverse signs: severe diarrhea
[1]; SAHA 200 μg/g co-injected, five days after anti-CD3-conditioning
  mice that died: 30%
[2]; SAHA 40 μg/g co-injected with anti-CD3 5 μg/g
  reduction of serum IL-2, IFN-γ, TNF-α, IL-6 at peak time points vs anti-CD3 alone: more than 2 fold
[2]; SAHA 200 μg/g co-injected with anti-CD3, data not shown
  serum cytokine reduction compared to SAHA 40 μg/g: reductions in serum cytokine levels that were similar
Host T cells
  apoptosis of host T cells and yield of residual live T cells in spleen: did not significantly increase apoptosis of host T cells or reduce the yield of residual live T cells
[3]; 0.5 μM SAHA
  IL-2, IFN-γ, TNF-α, IL-6 production in culture: reduced cytokine production significantly at all time points
[3]; 1 μM SAHA
  IL-2, IFN-γ, TNF-α, IL-6 production in culture: nearly undetectable
